Assay results as given in patent US12696901B2, “Pesticidally active heterocyclic derivatives with sulfur containing substituents” (SYNGENTA CROP PROTECTION AG, priority 2020, dated 2026).

Columns and labels:
Assay type in all cases: in vivo
[1] = system: Spodoptera littoralis (Egyptian Cotton Leaf Worm); test: Activity against Spodoptera littoralis (Egyptian cotton leaf worm), sprayed cotton leaf discs; settings: foliar, 72 h, application rate 200 ppm, L1 larvae, 3 days after infestation
Experimental: Example B7: Activity Against Spodoptera littoralis (Egyptian Cotton Leaf Worm)
Cotton leaf discs were placed onto agar in 24-well microtiter plates and sprayed with aqueous test solutions prepared from 10,000 ppm DMSO stock solutions. After drying the leaf discs were infested with five L1 larvae. The samples were assessed for mortality, anti-feeding effect, and growth inhibition in comparison to untreated samples 3 days after infestation. Control of Spodoptera littoralis by a test sample is given when at least one of the categories mortality, anti-feedant effect, and growth inhibition is higher than the untreated sample.

[2] = system: Euschistus heros (Neotropical Brown Stink Bug); test: Activity against Euschistus heros (neotropical brown stink bug), sprayed soybean leaves; settings: 120 h, application rate 200 ppm, N2 nymphs, 5 days after infestation, read-out: effect in at least one of the two categories (mortality or growth inhibition)
Experimental: Example B3: Activity Against Euschistus heros (Neotropical Brown Stink Bug)
Soybean leaves on agar in 24-well microtiter plates were sprayed with aqueous test solutions prepared from 10,000 ppm DMSO stock solutions. After drying the leaves were infested with N2 nymphs. The samples were assessed for mortality and growth inhibition in comparison to untreated samples 5 days after infestation.

[3] = system: Diabrotica balteata (Corn Root Worm); test: Activity against Diabrotica balteata (corn root worm), sprayed maize sprouts on agar; settings: 96 h, application rate 200 ppm, L2 larvae, 4 days after infestation, read-out: effect in at least one of the two categories (mortality or growth inhibition)
Experimental: Example B2: Activity Against Diabrotica balteata (Corn Root Worm)
Maize sprouts placed onto an agar layer in 24-well microtiter plates were treated with aqueous test solutions prepared from 10,000 ppm DMSO stock solutions by spraying. After drying, the plates were infested with L2 larvae (6 to 10 per well). The samples were assessed for mortality and growth inhibition in comparison to untreated samples 4 days after infestation.

[4] = system: Frankliniella occidentalis (Western Flower Thrips); test: Activity against Frankliniella occidentalis (western flower thrips), sprayed sunflower leaf discs; settings: foliar, 168 h, application rate 200 ppm, population of mixed ages, 7 days after infestation
Experimental: Example B4: Activity Against Frankliniella occidentalis (Western Flower Thrips)
(§1) Sunflower leaf discs were placed on agar in 24-well microtiter plates and sprayed with aqueous test solutions prepared from 10,000 ppm DMSO stock solutions. After drying the leaf discs were infested with a Frankliniella population of mixed ages. The samples were assessed for mortality 7 days after infestation.

[5] = system: Bemisia tabaci (Cotton White Fly); test: Activity against Bemisia tabaci (cotton white fly), sprayed cotton leaf discs; settings: foliar, 144 h, application rate 200 ppm, adult white flies, 6 days after incubation
Experimental: Example B1: Activity Against Bemisia tabaci (Cotton White Fly)
Cotton leaf discs were placed on agar in 24-well microtiter plates and sprayed with aqueous test solutions prepared from 10,000 ppm DMSO stock solutions. After drying the leaf discs were infested with adult white flies. The samples were checked for mortality 6 days after incubation.

[6] = system: Myzus persicae (Green Peach Aphid); test: Activity against Myzus persicae (green peach aphid), feeding/contact activity; settings: 144 h, application rate 200 ppm, mixed ages, 6 days after infestation
Experimental: Example B6: Activity Against Myzus persicae (Green Peach Aphid) Feeding/Contact Activity
Sunflower leaf discs were placed onto agar in a 24-well microtiter plate and sprayed with aqueous test solutions prepared from 10,000 ppm DMSO stock solutions. After drying, the leaf discs were infested with an aphid population of mixed ages. The samples were assessed for mortality 6 days after infestation.

[7] = system: Diabrotica balteata (Corn Root Worm); test: Activity against Diabrotica balteata (corn root worm), corn seedlings on filter paper in cups; settings: 120 h, application rate 3 ppm, L2 larva, 5 days after treatment, read-out: effect in at least one of the two categories (mortality or growth inhibition)
Experimental: Example B12: Activity Against Diabrotica Balteata (Corn Root Worm)
Three corn seedlings were placed on wetted filter paper in plastic cups, and 3 ml of diluted test solutions were pipetted onto them. The cups were infested with 10 L2 larva and checked for mortality and growth regulation 5 days after treatment.

[8] = system: Carpocapsa (Cydia) Pomonella (Codling Moth); test: Activity against Carpocapsa (Cydia) pomonella (codling moth), sprayed diet cubes; settings: 336 h, application rate 12.5 ppm, L1 larvae, 14 days after infestation, read-out: effect in at least one of the two categories (mortality or growth inhibition)
Experimental: Example B11: Activity Against Carpocapsa (Cydia) Pomonella (Codling Moth)
Diet cubes coated with paraffin were sprayed with diluted test solutions in an application chamber. After drying off the treated cubes (10 replicates) were infested with 1 L1 larvae. Samples were incubated at 26-27° C. and checked 14 days after infestation for mortality and growth inhibition. The following compounds gave an effect of at least 80% in at least one of the two categories (mortality or growth inhibition) at an application rate of 12.5 ppm: P1, P2, P3, P4, P5, P6, P10, P11, P12, P14, P15, P16, P17, P19, P20, P21, P22, P24, P27, P29, P30, P33, P34, P35.

[9] = system: Plutella xylostella (Diamond Back Moth); test: Activity against Plutella xylostella (diamond back moth), treated artificial diet; settings: 192 h, application rate 200 ppm, eggs, 8 days after infestation, read-out: effect in at least one of the two categories (mortality or growth inhibition)
Experimental: Example B5: Activity Against Plutella xylostella (Diamond Back Moth)
24-well microtiter plates with artificial diet were treated with aqueous test solutions prepared from 10,000 ppm DMSO stock solutions by pipetting. After drying, Plutella eggs were pipetted through a plastic stencil onto a gel blotting paper and the plate was closed with it. The samples were assessed for mortality and growth inhibition in comparison to untreated samples 8 days after infestation.

[10] = system: Chilo suppressalis (Striped Rice Stemborer); test: Activity against Chilo suppressalis (striped rice stemborer), treated artificial diet; settings: 144 h, application rate 200 ppm, L2 larvae, 6 days after infestation
Experimental: Example B10: Activity Against Chilo suppressalis (Striped Rice Stemborer)
24-well microtiter plates with artificial diet were treated with aqueous test solutions prepared from 10,000 ppm DMSO stock solutions by pipetting. After drying, the plates were infested with L2 larvae (6-8 per well). The samples were assessed for mortality, anti-feeding effect, and growth inhibition in comparison to untreated samples 6 days after infestation. Control of Chilo suppressalis by a test sample is given when at least one of the categories mortality, anti-feedant effect, and growth inhibition is higher than the untreated sample.

[11] = system: Tetranychus urticae (Two-Spotted Spider Mite); test: Activity against Tetranychus urticae (two-spotted spider mite), sprayed bean leaf discs; settings: foliar, 192 h, application rate 200 ppm, mixed population (mobile stages), 8 days after infestation
Experimental: Example B9: Activity Against Tetranychus urticae (Two-Spotted Spider Mite)
as §1, with “Bean” for “Sunflower”, “discs” for “discs were placed”, “were” for “and”, “mite” for “Frankliniella”, “on mixed population (mobile stages) 8” for “7”

CCS(=O)(=O)c1c(N2Cc3ccc(OC(F)(F)F)cc3C2=O)nc2cc(C3(C#N)CC3)ccn12 [Compound P5, 1-[3-ethylsulfonyl-2-[1-oxo-6-(trifluoromethoxy)isoindolin-2-yl]imidazo[1,2-a]pyridin-7-yl] cyclopropane-carbonitrile]
≥ 80%: percent control (mortality, anti-feedant effect or growth inhibition) at 200 ppm [1] | percent effect (mortality or growth inhibition) at 200 ppm [2] | percent effect (mortality or growth inhibition) at 200 ppm [3] | mortality at 200 ppm [4] | mortality at 200 ppm [5] | mortality at 200 ppm [6] | percent effect (mortality or growth inhibition) at 3 ppm [7] | percent effect (mortality or growth inhibition) at 12.5 ppm [8] | percent effect (mortality or growth inhibition) at 200 ppm [9]

CCS(=O)(=O)c1c(N2Cc3ccc(S(=O)(=O)C(F)(F)F)cc3C2=O)nc2cc(C(F)(F)F)ccn12 [Compound P37, 2-[3-ethylsulfonyl-7-(trifluoromethyl)imidazo[1,2-a]pyridin-2-yl]-6-(trifluoromethyl-sulfonyl) isoindolin-1-one]
≥ 80%: percent control (mortality, anti-feedant effect or growth inhibition) at 200 ppm [1] | percent effect (mortality or growth inhibition) at 200 ppm [2] | percent effect (mortality or growth inhibition) at 200 ppm [3] | mortality at 200 ppm [4] | mortality at 200 ppm [5] | mortality at 200 ppm [6] | percent effect (mortality or growth inhibition) at 3 ppm [7] | percent control (mortality, anti-feedant effect or growth inhibition) at 200 ppm [10]

CCS(=O)(=O)c1c(N2Cc3ccc(S(=O)(=O)C(F)(F)F)cc3C2=O)nc2cc(OCC(F)(F)F)ccn12 [Compound P33, 2-[3-ethylsulfonyl-7-(2,2,2-trifluoroethoxy)imidazo[1,2-a]pyridin-2-yl]-6-(trifluoromethylsulfonyl)isoindolin-1-one]
≥ 80%: percent control (mortality, anti-feedant effect or growth inhibition) at 200 ppm [1] | percent effect (mortality or growth inhibition) at 200 ppm [2] | percent effect (mortality or growth inhibition) at 200 ppm [3] | mortality at 200 ppm [4] | mortality at 200 ppm [5] | mortality at 200 ppm [6] | percent effect (mortality or growth inhibition) at 3 ppm [7] | percent control (mortality, anti-feedant effect or growth inhibition) at 200 ppm [10] | percent effect (mortality or growth inhibition) at 12.5 ppm [8] | percent effect (mortality or growth inhibition) at 200 ppm [9]

CCS(=O)(=O)c1c(N2Cc3ncc(C(F)(F)F)cc3C2=O)nc2cc(C3(C#N)CC3)ccn12 [Compound P3, 1-[3-ethylsulfonyl-2-[5-oxo-3-(trifluoromethyl)-7H-pyrrolo[3,4-b]pyridin-6-yl]imidazo [1,2-a]pyridin-7-yl] cyclopropane-carbonitrile]
≥ 80%: percent control (mortality, anti-feedant effect or growth inhibition) at 200 ppm [1] | percent effect (mortality or growth inhibition) at 200 ppm [2] | percent effect (mortality or growth inhibition) at 200 ppm [3] | mortality at 200 ppm [4] | mortality at 200 ppm [5] | mortality at 200 ppm [6] | percent effect (mortality or growth inhibition) at 3 ppm [7] | percent effect (mortality or growth inhibition) at 12.5 ppm [8] | percent effect (mortality or growth inhibition) at 200 ppm [9]

CCS(=O)(=O)c1c(N2Cc3ncc(C(F)(F)F)cc3C2=O)nc2ccc(C3CC3)cn12 [Compound P27, 6-(6-cyclopropyl-3-ethylsulfonyl-imidazo [1,2-a]pyridin-2-yl)-3-(trifluoromethyl)-7H-pyrrolo[3,4-b]pyridin-5-one]
≥ 80%: percent control (mortality, anti-feedant effect or growth inhibition) at 200 ppm [1] | percent effect (mortality or growth inhibition) at 200 ppm [2] | percent effect (mortality or growth inhibition) at 200 ppm [3] | mortality at 200 ppm [4] | mortality at 200 ppm [6] | percent effect (mortality or growth inhibition) at 3 ppm [7] | percent control (mortality, anti-feedant effect or growth inhibition) at 200 ppm [10] | percent effect (mortality or growth inhibition) at 12.5 ppm [8] | percent effect (mortality or growth inhibition) at 200 ppm [9]

CCS(=O)(=O)c1c(N2Cc3ccc(OC(F)(F)F)cc3C2=O)nc2ccc(C3(C#N)CC3)cn12 [Compound P14, 1-[3-ethylsulfonyl-2-[1-oxo-6-(trifluoromethoxy)isoindolin-2-yl]imidazo[1,2-a]pyridin-6-yl] cyclopropane-carbonitrile]
≥ 80%: percent control (mortality, anti-feedant effect or growth inhibition) at 200 ppm [1] | percent effect (mortality or growth inhibition) at 200 ppm [2] | percent effect (mortality or growth inhibition) at 200 ppm [3] | mortality at 200 ppm [4] | mortality at 200 ppm [5] | mortality at 200 ppm [6] | percent effect (mortality or growth inhibition) at 3 ppm [7] | mortality at 200 ppm [11] | percent effect (mortality or growth inhibition) at 12.5 ppm [8] | percent effect (mortality or growth inhibition) at 200 ppm [9]

CCS(=O)(=O)c1c(N2Cc3ncc(C(F)(F)F)cc3C2=O)nc2ccc(C3(C#N)CC3)cn12 [Compound P15, 1-[3-ethylsulfonyl-2-[5-oxo-3-(trifluoromethyl)-7H-pyrrolo[3,4-b]pyridin-6-yl]imidazo [1,2-a]pyridin-6-yl] cyclopropane-carbonitrile]
≥ 80%: percent control (mortality, anti-feedant effect or growth inhibition) at 200 ppm [1] | percent effect (mortality or growth inhibition) at 200 ppm [2] | percent effect (mortality or growth inhibition) at 200 ppm [3] | mortality at 200 ppm [4] | mortality at 200 ppm [5] | mortality at 200 ppm [6] | percent effect (mortality or growth inhibition) at 3 ppm [7] | mortality at 200 ppm [11] | percent effect (mortality or growth inhibition) at 12.5 ppm [8] | percent effect (mortality or growth inhibition) at 200 ppm [9]

CCS(=O)(=O)c1c(N2Cc3ccc(C(F)(F)F)cc3C2=O)nc2ccc(C3(C#N)CC3)cn12 [Compound P16, 1-[3-ethylsulfonyl-2-[1-oxo-6-(trifluoromethyl)isoindolin-2-yl]imidazo[1,2-a]pyridin-6-yl] cyclopropane-carbonitrile]
≥ 80%: percent control (mortality, anti-feedant effect or growth inhibition) at 200 ppm [1] | percent effect (mortality or growth inhibition) at 200 ppm [2] | percent effect (mortality or growth inhibition) at 200 ppm [3] | mortality at 200 ppm [5] | mortality at 200 ppm [6] | percent effect (mortality or growth inhibition) at 3 ppm [7] | mortality at 200 ppm [11] | percent effect (mortality or growth inhibition) at 12.5 ppm [8] | percent effect (mortality or growth inhibition) at 200 ppm [9]
